One series concerns the target GLP-1R (Homo sapiens (Human), UniProt P43220). Briefly: GLP-1R activation: cAMP increase in CHO cells stably expressing GLP-1R. Format: cell-based. The conditions noted are these: 10 point dose response, 30 minutes incubation at 37° C. As to the method:
GLP-1R activation by a compound of the present disclosure was quantified by measuring cAMP increase in CHO cells stably expressing GLP-1R (MultiSpan product #C1267-1a). […] The cells were then incubated overnight at 37° C., 5% CO2. […] 1% BSA (Rockland Immunochemicals product #BSA-1000)). Following the medium change, the cells were incubated for 1 hour at 37° C., 5% CO2. The tested GLP-1 compound was added to the cells in a 10 point dose response followed by a 30 minutes incubation at 37° C., 5% CO2. cAMP concentration increase was then detected using Cisbio's cAMP Gs Dynamic Kit (product #62AM4PEC) according to the manufacturer's protocol. The response was plotted against the log of the agonist concentration and fitted to a sigmoidal equation to determine the EC50.

Series [1] in a line: Microsomal stability (liver microsomal assay, mixed cofactors); predicted hepatic clearance. Format: in vitro ADME. Conditions: liver microsomes 1.0 mg protein/mL (+UDPGA +NADPH), 1 μM analyte, 37° C.; scaled with human liver weight and hepatic blood flow 1.3 L/hr/kg. As to the method: Metabolic stability of compounds was assessed using human or rat liver microsomal assays (Corning). In these assays, 10 nL of each analyte at a concentration of 1 mM in 100% DMSO was dispensed into a well of a polypropylene plates using the Echo 550 acoustic liquid dispenser (Labcyte®). Each plate contained 384 wells with a single analyte in each well.
A solution of human (Corning® Gentest™ Human Mixed Pooled Microsomes or rat (Corning® Gentest™ Rat [Sprague-Dawley] Pooled Liver Microsomes) liver microsomes at 2 mg/ml in 100 mM K2HPO4/KH2PO4 at pH 7. 4 was combined with alamethicin from Trichoderma viride (Sigma-Aldrich) 0.0225 mg/ml. The mixture was incubated on ice for 15 minutes. 5 μL of this mixture was added to individual wells following a 15 minute incubation at room temperature and supplemented with 5 μL NADPH Regenerating Solution of cofactors (Corning® Gentest™ UGT Reaction Mix) containing 100 mM K2HPO4/KH2PO4 at pH 7.4, 2.6 mM NADP+, 6.6 mM glucose-6-phosphate, 6.6 mM MgCl2, 0.8 U/mL glucose-6-phosphate dehydrogenase, 0.1 mM sodium citrate, and 6.8 mM uridine diphosphate-glucuronic acid. The final concentration of each analyte compound at the beginning of the reaction was 1 μM. The reactions were incubated at 37° C. and samples were collected at time points of 0, 5, 15, 30, 40, 50, 60, and 70 minutes for further analysis. Background data were collected using reactions without analyte compounds.
Upon collection of the sample time points, samples were quenched with 30 μL of a solution of 72% acetonitrile, 8% methanol, 0.1% formic acid, 19.9% water, and internal standard (IS). Reaction plates were spun in a centrifuge at speed of 4,000 rcf for 30 minutes at 4° C., following a dilution of the 10 μL quenched reaction into 40 μL de-ionized water, yielding assay plates.
Assay plates were analyzed using solid-state extraction coupled with quadrupole time-of-flight mass spectrometer, using Agilent QToF 6530 RapidFire 360 system, with C4 type A solid state cartridges. Analysis was performed in either positive or negative ionization modes. Mobile phases contained 0.1% formic acid in water for loading analytes onto solid state extraction cartridges and 0.1% formic acid in acetonitrile for elution into a mass spectrometer in positive ionization mode, or 0.1% acetic acid in water for loading and 0.1% acetic acid in acetonitrile for extraction in negative ionization mode. Peak-area ratios of integrated counts for individual compounds to IS were plotted as semi-logarithmic chart of log vs time. The initial linear portion of decay was fitted to a linear regression equation to derive the half-time of analyte decay.
Pharmacological parameters for an analyte compound metabolism were calculated using the following equations: […]
wherein concentration refers to the protein concentration (mg/ml) in the reaction.
This scales the in vitro intrinsic clearance up to the value that would be predicted for the entire mass of liver tissue (but with no restriction by blood flow). The value depends upon the size of the liver (species-dependent) and the yield of microsomal protein as appropriate (assumed to be species-independent).
Hepatic clearance will depend upon the inter-relationship of intrinsic clearance and hepatic blood flow and was predicted from in vitro data using a variety of approaches.
The hepatic extraction is reported as the predicted clearance expressed as a proportion of hepatic blood flow.

Read-outs that look alike come from different tables or passages of the source.

Sequence of GLP-1R (P43220 24-463): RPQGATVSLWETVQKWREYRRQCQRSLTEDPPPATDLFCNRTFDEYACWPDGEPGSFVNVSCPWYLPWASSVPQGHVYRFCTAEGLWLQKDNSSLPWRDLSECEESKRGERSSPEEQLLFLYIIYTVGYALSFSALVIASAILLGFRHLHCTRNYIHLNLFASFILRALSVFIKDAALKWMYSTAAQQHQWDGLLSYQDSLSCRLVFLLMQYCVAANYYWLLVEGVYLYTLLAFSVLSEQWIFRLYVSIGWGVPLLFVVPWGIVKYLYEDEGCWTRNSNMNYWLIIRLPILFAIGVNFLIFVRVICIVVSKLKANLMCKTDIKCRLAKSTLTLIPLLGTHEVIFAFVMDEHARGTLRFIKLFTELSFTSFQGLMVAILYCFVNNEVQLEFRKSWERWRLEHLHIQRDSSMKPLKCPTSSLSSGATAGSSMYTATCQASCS

Usually EC50 stands for the midpoint of the concentration-response curve. On to `CC1(c2ccc(Cl)cc2F)Oc2cccc(-c3ccc(Cc4nc5ccc(C(=O)O)cc5n4C[C@@H]4CCO4)c(F)c3)c2O1` (stereo partly drawn) [Example 23, 2-(4-(2-(4-chloro-2-fluorophenyl)-2-methylbenzo[d][1, 3]dioxol-4-yl)-2-fluorobenzyl)-1-(((S)-oxetan-2-yl)methyl)-1H-benzo[d]imidazole-6-carboxylic acid], for which, on GLP-1R (cAMP increase, read-out: EC50), the EC50 came out at 0.49 nM. Also, the “Predicted Hepatic Clearance (Pred. Cl.)” value in series [1] was 2.33 mL/min/kg.
Regarding `COCCn1c(Cc2c(F)cc(-c3cccc4c3OC(C)(c3ccc(C#N)cn3)O4)cc2F)nc2ccc(C(=O)O)cc21` (stereo not shown) [Example 66, 2-(4-(2-(5-cyanopyridin-2-yl)-2-methylbenzo[d][1, 3]dioxol-4-yl)-2,6-difluorobenzyl)-1-(2-methoxyethyl)-1H-benzo[d]imidazole-6-carboxylic acid], the EC50 at GLP-1R (cAMP increase, read-out: EC50) is 21 nM. The “Predicted Hepatic Clearance (Pred. Cl.)” value in series [1] was 7.17 mL/min/kg.
For the compound `COCCn1c(Cc2c(F)cc(-c3cccc4c3OC(c3ccc(C#N)cc3F)O4)cc2F)nc2ccc(C(=O)O)cc21` (stereo not shown) [Example 5, 2-(4-(2-(4-cyano-2-fluorophenyl)benzo[d][1, 3]dioxol-4-yl)-2,6-difluorobenzyl)-1-(2-methoxyethyl)-1H-benzo[d]imidazole-6-carboxylic acid], the EC50 on GLP-1R (cAMP increase, read-out: EC50) was found to be 161 nM. Also, the “Predicted Hepatic Clearance (Pred. Cl.)” value in series [1] is less than 1.83 mL/min/kg.
`COCCn1c(Cc2c(F)cc(-c3cccc4c3OC(C)(c3ccc(C#N)cc3F)O4)cc2F)nc2ccc(C(=O)O)cc21` (single isomer, unassigned) [Example 98, 2-(4-(2-(4-cyano-2-fluorophenyl)-2-methylbenzo[d][1, 3]dioxol-4-yl)-2,6-difluorobenzyl)-1-(2-methoxyethyl)-1H-benzo[d]imidazole-6-carboxylic acid]: the half-maximal effective concentration (EC50) on GLP-1R (cAMP increase, read-out: EC50) was determined as 67 nM. The “Predicted Hepatic Clearance (Pred. Cl.)” value in series [1] was 3.5 mL/min/kg.
Take `COCCn1c(Cc2c(F)cc(-c3cccc4c3OC(c3ccc(C#N)cc3F)O4)cc2F)nc2ccc(C(=O)O)cc21` (single isomer, unassigned) [Example 37, 2-(4-(2-(4-cyano-2-fluorophenyl)benzo [d][1,3]dioxol-4-yl)-2,6-difluorobenzyl)-1-(2-methoxyethyl)-1H-benzo[d]imidazole-6-carboxylic acid]: the half-maximal effective concentration (EC50) on GLP-1R (cAMP increase, read-out: EC50) was found to be 1000 nM. In addition, in series [1], the “Predicted Hepatic Clearance (Pred. Cl.)” value is 3.83 mL/min/kg.
The corresponding values for `COCCn1c(Cc2ccc(-c3cccc4c3OC(c3ccc(C#N)cc3)O4)cc2F)nc2ccc(C(=O)O)cc21` (stereo not shown) [Example 6, 2-(4-(2-(4-cyanophenyl)benzo[d][1, 3]dioxol-4-yl)-2-fluorobenzyl)-1-(2-methoxyethyl)-1H-benzo[d]imidazole-6-carboxylic acid] are 219 nM and 4.83 mL/min/kg.
On to `COCCn1c(Cc2ccc(-c3cccc4c3OC(c3ccccc3)O4)cc2F)nc2ccc(C(=O)O)cc21` (single isomer, unassigned) [Example 35, 2-(2-fluoro-4-(2-phenylbenzo[d][1, 3]dioxol-4-yl)benzyl)-1-(2-methoxyethyl)-1H-benzo[d]imidazole-6-carboxylic acid], for which the half-maximal effective concentration (EC50) at GLP-1R (cAMP increase, read-out: EC50) is 646 nM. Also, the “Predicted Hepatic Clearance (Pred. Cl.)” value in series [1] was 2.83 mL/min/kg.
In the case of `N#Cc1ccc(C2Oc3cccc(-c4cc(F)c(Cc5nc6ccc(C(=O)O)cc6n5C[C@@H]5CCO5)c(F)c4)c3O2)c(F)c1` (single isomer, unassigned) [Example 42], the EC50 on GLP-1R (cAMP increase, read-out: EC50) amounted to 1.1 nM. In addition, the “Predicted Hepatic Clearance (Pred. Cl.)” value in series [1] was 3.83 mL/min/kg.
On to `COCCn1c(Cc2ccc(-c3cccc4c3OC(c3ccc(C#N)cc3F)O4)cc2F)nc2ccc(C(=O)O)cc21` (single isomer, unassigned) [Example 34], for which the EC50 on GLP-1R (cAMP increase, read-out: EC50) is 350 nM. The “Predicted Hepatic Clearance (Pred. Cl.)” value in series [1] was 4.17 mL/min/kg.
In the case of `COCCn1c(Cc2ccc(-c3cccc4c3OC(c3ccccc3)C4)cc2F)nc2ccc(C(=O)O)cc21` (stereo not shown) [Example 7, 2-(2-fluoro-4-(2-phenyl-2,3-dihydrobenzofuran-7-yl)benzyl)-1-(2-methoxyethyl)-1H-benzo[d]imidazole-6-carboxylic acid], the EC50 at GLP-1R (cAMP increase, read-out: EC50) amounted to 530 nM. Moreover, the “Predicted Hepatic Clearance (Pred. Cl.)” value in series [1] was 7.5 mL/min/kg.
For `COCCn1c(Cc2c(F)cc(-c3cccc4c3OC(C)(c3ccc(Cl)cc3F)O4)cc2F)nc2ccc(C(=O)O)cc21` (stereo not shown) [Example 19, 2-(4-(2-(4-chloro-2-fluorophenyl)-2-methylbenzo[d][1, 3]dioxol-4-yl)-2,6-difluorobenzyl)-1-(2-methoxyethyl)-1H-benzo[d]imidazole-6-carboxylic acid], on GLP-1R (cAMP increase, read-out: EC50), the EC50 turned out to be 0.97 nM. The “Predicted Hepatic Clearance (Pred. Cl.)” value in series [1] was 2.5 mL/min/kg.
On GLP-1R (EC50, cAMP increase), `CC1(c2ccc(Cl)cc2F)Oc2cccc(-c3cc(F)c(Cc4nc5ccc(C(=O)O)cc5n4C[C@@H]4CCO4)c(F)c3)c2O1` (single isomer, unassigned) [Example 48] showed an EC50 of 1.2 nM. The “Predicted Hepatic Clearance (Pred. Cl.)” value in series [1] was 2 mL/min/kg.
In the case of `COCCn1c(Cc2c(F)cc(-c3cccc4c3OC(C)(c3ccc(C#N)cc3F)O4)c(F)c2F)nc2ccc(C(=O)O)cc21` (stereo not shown) [Example 88, 2-(4-(2-(4-cyano-2-fluorophenyl)-2-methylbenzo[d][1, 3]dioxol-4-yl)-2,3,6-trifluorobenzyl)-1-(2-methoxyethyl)-1H-benzo[d]imidazole-6-carboxylic acid], at GLP-1R (cAMP increase, read-out: EC50), the EC50 was found to be 12 nM. In series [1], the “Predicted Hepatic Clearance (Pred. Cl.)” value was 8 mL/min/kg.
Turning to `COCCn1c(Cc2ccc(-c3cccc4c3OC(c3ccccc3)O4)cc2F)nc2ccc(C(=O)O)cc21` (single isomer, unassigned) [Example 36, 2-(2-fluoro-4-(2-phenylbenzo[d][1, 3]dioxol-4-yl)benzyl)-1-(2-methoxyethyl)-1H-benzo[d]imidazole-6-carboxylic acid], the EC50 at GLP-1R (cAMP increase, read-out: EC50) came to 242 nM. In addition, the “Predicted Hepatic Clearance (Pred. Cl.)” value in series [1] was 8.67 mL/min/kg.
For `COCCn1c(Cc2csc(-c3cccc4c3OC(C)(c3ccc(Cl)cc3F)O4)c2)nc2ccc(C(=O)O)cc21` (stereo not shown) [Example 61, 2-((5-(2-(4-chloro-2-fluorophenyl)-2-methylbenzo[d][1, 3]dioxol-4-yl)thiophen-3-yl)methyl)-1-(2-methoxyethyl)-1H-benzo[d]imidazole-6-carboxylic acid], in that order: 639 nM and 13 mL/min/kg.
With `CC1(c2ccc(Cl)cc2F)Oc2cccc(-c3cc(F)c(Cc4nc5ccc(C(=O)O)nc5n4CC4(CC#N)CC4)cc3F)c2O1` (stereo not shown) [Example 75, 2-(4-(2-(4-chloro-2-fluorophenyl)-2-methylbenzo[d][1, 3]dioxol-4-yl)-2,5-difluorobenzyl)-3-((1-(cyanomethyl)cyclopropyl)methyl)-3H-imidazo[4,5-b]pyridine-5-carboxylic acid], the EC50 on GLP-1R (cAMP increase, read-out: EC50) was 0.7 nM. Moreover, the “Predicted Hepatic Clearance (Pred. Cl.)” value in series [1] was 4.83 mL/min/kg.
As for `COCCn1c(Cc2cc(F)c(-c3cccc4c3OC(C)(c3ccc(C#N)cc3F)O4)cc2F)nc2c(F)cc(C(=O)O)cc21` (stereo not shown) [Example 62, 2-(4-(2-(4-cyano-2-fluorophenyl)-2-methylbenzo[d][1, 3]dioxol-4-yl)-2,5-difluorobenzyl)-4-fluoro-1-(2-methoxyethyl)-1H-benzo[d]imidazole-6-carboxylic acid], on GLP-1R (cAMP increase, read-out: EC50), the EC50 was 2.5 nM. Also, in series [1], the “Predicted Hepatic Clearance (Pred. Cl.)” value is 8.83 mL/min/kg.

The values above are taken from patent US20250099431A1, “GLP-1R MODULATING COMPOUNDS” (priority 2020, published 2025).
